# Read-outs that look alike come from different tables or passages of the source.
# Target: T1, METTL3/14 (Homo sapiens, UniProt Q86U44)
# T1 construct: The enzyme used was full-length his-tagged METTL3; His; made in house
# Experiment: METTL3/14 methyltransferase assay (METTL3_14 RFMS, RapidFire mass spectrometry);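 further: recombinant His-tagged METTL3 with FLAG-tagged METTL14 from baculovirus, SAH product quantified by mass spectrometry against isotope-labelled internal standards, 60 min at room temperature, scaled between no-RNA and DMSO-only wells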
# Assay type: biochemical
# Conditions: 5 nM METTL3/14, 0.2 μM RNA substrate, 0.5 μM SAM, lower limit of the assay IC50=5 nM, read-out: METTL3_14 RFMS IC50
# Protocol: The enzyme used was full-length his-tagged METTL3 co-expressed with full length FLAG-tagged METTL14 in a baculovirus expression system. […] After termination, plates were sealed, centrifuged and stored at 4° C. until analysis. […] Mass Spectrometry Analysis RNA methyltransferase activity was measured label free using the RapidFireTM mass spectrometry (RF/MS) platform. Stopped and stable assay plates were analyzed on the Agilent RF300 integrated autosampler/solid-phase extraction (SPE) system coupled to an ABSciex 4000 mass spectrometer for the generation of the product S-adenosyl homocysteine (SAH) and normalized to the ratio of signal of the two internal product standards, respectively. Solvent A was water containing 0.1% (v/v) TCA. Solvent B was acetonitrile/0.1% ammonium acetate (8:2, v/v). More specifically, plates were centrifuged at 4350 rpm for 10 min, samples were aspirated under vacuum for 600 ms, then loaded onto a C18 solid-phase extraction cartridge and washed for 3 s with solvent A at a flow rate of 1.5 mL/min. Retained product and internal standards were eluted with solvent B at a flow rate of 1 mL/min for 3 s and finally the cartridge was reequilibrated with solvent A for 500 ms.
# T1 sequence (Q86U44 whole entry): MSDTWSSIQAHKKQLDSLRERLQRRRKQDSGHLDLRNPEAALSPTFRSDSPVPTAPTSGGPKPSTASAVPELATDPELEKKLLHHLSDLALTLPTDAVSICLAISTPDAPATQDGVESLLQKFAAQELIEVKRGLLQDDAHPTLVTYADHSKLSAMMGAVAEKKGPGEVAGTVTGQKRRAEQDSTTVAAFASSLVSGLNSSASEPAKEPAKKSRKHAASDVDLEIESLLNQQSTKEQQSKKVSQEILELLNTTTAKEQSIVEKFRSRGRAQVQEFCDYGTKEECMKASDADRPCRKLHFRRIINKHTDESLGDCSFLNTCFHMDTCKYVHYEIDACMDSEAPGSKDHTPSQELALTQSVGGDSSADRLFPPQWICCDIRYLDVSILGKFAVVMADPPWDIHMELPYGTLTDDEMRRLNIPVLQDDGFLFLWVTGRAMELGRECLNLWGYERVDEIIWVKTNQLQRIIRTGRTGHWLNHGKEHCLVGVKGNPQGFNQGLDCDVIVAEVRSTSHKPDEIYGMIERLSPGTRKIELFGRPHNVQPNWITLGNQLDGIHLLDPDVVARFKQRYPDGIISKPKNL
# T1 sequence (Q9HCE5 whole entry partner): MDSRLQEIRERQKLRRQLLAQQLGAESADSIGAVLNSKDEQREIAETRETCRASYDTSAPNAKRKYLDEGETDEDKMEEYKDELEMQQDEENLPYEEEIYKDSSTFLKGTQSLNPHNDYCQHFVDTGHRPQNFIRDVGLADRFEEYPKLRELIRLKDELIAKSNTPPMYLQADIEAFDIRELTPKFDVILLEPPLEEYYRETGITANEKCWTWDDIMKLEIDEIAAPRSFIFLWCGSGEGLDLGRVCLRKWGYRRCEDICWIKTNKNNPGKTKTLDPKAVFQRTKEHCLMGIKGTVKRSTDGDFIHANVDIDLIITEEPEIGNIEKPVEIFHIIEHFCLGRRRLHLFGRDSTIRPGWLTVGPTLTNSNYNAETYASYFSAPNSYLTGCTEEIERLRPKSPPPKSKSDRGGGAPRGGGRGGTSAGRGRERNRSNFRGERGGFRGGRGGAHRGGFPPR
Compound,IC50 (Compounds 63-265) [µM],further results
"O=C(NCc1cn2cc(CNCC(F)F)ccc2n1)c1cc(=O)n2ccccc2n1 [Compound 119, N-[(6-{[(2,2-difluoroethyl)amino]methyl}imidazo[1,2-a]pyridin-2-yl)methyl]-4-oxo-4H-pyrido[1,2-a] pyrimidine-2-carboxamide]",0.578,
"CC(C)(C)OC(=O)NCCc1ccc2nc(CNC(=O)c3cc(=O)n4ccccc4n3)cn2c1 [Compound 67, tert-butyl N-(2-{2-[({4-oxo-4H-pyrido[1,2-a]pyrimidin-2-yl}formamido)methyl]imidazo [1,2-a]pyridin-6-yllethyl) carbamate]",8.14,
"CC(C)(C)OCCNCc1ccc2nc(CNC(=O)c3cc(=O)n4ccccc4n3)cn2c1 [Compound 152, N-{[6-({[2-(tert-butoxy)ethyl]amino}methyl)imidazo[1,2-a]pyridin-2-yl]methyl}-4-oxo-4H-pyrido[1,2-a] pyrimidine-2-carboxamide]",0.104,
"O=C(NCc1cn2cc(CNCC3CCCCC3)ccc2n1)c1cc(=O)c2ccc(Cl)cc2o1 [Compound 171, 7-chloro-N-[(6-{[(cyclohexylmethyl)amino]methyl}imidazo[1,2-a]pyridin-2-yl)methyl]-4-oxo-4H-chromene-2-carboxamide]",0.293,
"O=C(NCc1cn2cc(CN3CCC(Cc4ccccc4)CC3)ccc2n1)c1cc(=O)n2ccccc2n1 [Compound 155, N-({6-[(4-benzylpiperidin-1-yl)methyl]imidazo[1,2-a]pyridin-2-yl}methyl)-4-oxo-4H-pyrido [1,2-a]pyrimidine-2-carboxamide]",0.177,
"O=C(NCc1cn2cc(CNC3CCCCC3)ccc2n1)c1cc(=O)n2ccccc2n1 [Compound 86, N-({6-[(cyclohexyl-amino)methyl]imidazo[1,2-a]pyridin-2-yl}methyl)-4-oxo-4H-pyrido[1,2-a]pyrimidine-2-carboxamide]",0.0231,
"CC(C)(C)C1CCN(Cc2ccc3nc(CNC(=O)c4cc(=O)n5ccccc5n4)cn3c2)CC1 [Compound 161, N-({6-[(4-tert-butylpiperidin-1-yl)methyl]imidazo[1,2-a]pyridin-2-yl}methyl)-4-oxo-4H-pyrido[1,2-a]pyrimidine-2-carboxamide]",0.0991,
"O=C(NCc1cn2cc(CNC[C@H]3C[C@H]4CC[C@@H]3C4)ccc2n1)c1cc(=O)n2ccccc2n1 [Compound 348, N-({6-[({[(1R,2S,4S)-bicyclo[2.2.1]heptan-2-yl]methyl}amino)methyl]imidazo[1,2-a]pyridin-2-yl}methyl)-4-oxo-4H-pyrido[1,2-a]pyrimidine-2-carboxamide]",,IC50 (Compounds 266-351): 0.00902 µM
"Cc1ccc2nc(Cc3nnc(-c4cccc5[nH]ncc45)s3)cn2c1 [Compound 66, 4-[5-({6-methylimidazo[1,2-a]pyridin-2-yl}methyl)-1,3,4-thiadiazol-2-yl]-1H-indazole]",1.35,
"O=C(NCc1cn2cc(CNCCF)ccc2n1)c1cc(=O)n2ccccc2n1 [Compound 128, N-[(6-{[(2-fluoroethyl)amino]methyl}imidazo [1,2-a]pyridin-2-yl)methyl]-4-oxo-4H-pyrido[1,2-a] pyrimidine-2-carboxamide]",0.333,
"Cc1ccc2nc(CNC(=O)c3ccc4[nH]ncc4c3)cn2c1 [Compound 20, N-({6-methylimidazo[1,2-a]pyridin-2-yl}methyl)-1H-indazole-5-carboxamide]",,IC50 (Compounds 1-62): 8.41 µM
"C=Cc1ccc2nc(CNC(=O)c3cc(=O)n4ccccc4n3)cn2c1 [Compound 58, N-({6-ethenylimidazo[1,2-a]pyridin-2-yl}methyl)-4-oxo-4H-pyrido[1,2-a]pyrimidine-2-carboxamide]",,IC50 (Compounds 1-62): 0.299 µM
"Cc1ccn2cc(CNC(=O)c3cc(Br)cc4[nH]ncc34)nc2c1 [Compound 11, 6-bromo-N-({7-methylimidazo[1,2-a]pyridin-2-yl}methyl)-1H-indazole-4-carboxamide]",,IC50 (Compounds 1-62): 4.1 µM
"Cc1ccc2nc(CNC(=O)c3cc(=O)n4c(n3)CCCC4)cn2c1 [Compound 64, N-({6-methylimidazo [1,2-a]pyridin-2-yl}methyl)-4-oxo-4H,6H,7H,8H, 9H-pyrido[1,2-a]pyrimidine-2-carboxamide]",7.33,
"O=C(NCc1cn2cc(CNC3(C4CCCCC4)CC3)ccc2n1)c1cc(=O)n2ccccc2n1 [Compound 98, N-[(6-{[(1-cyclohexyl-cyclopropyl)amino]methyl}imidazo[1,2-a]pyridin-2-yl)methyl]-4-oxo-4H-pyrido [1,2-a]pyrimidine-2-carboxamide]",0.0456,
"CC(C)(C)C1CCC(NCc2ccc3nc(CNC(=O)c4cc(=O)n5ccccc5n4)cn3c2)CC1 (centres unmarked) [Compound 162, N-[(6-{[(4-tert-butylcyclohexyl)amino]methyl}imidazo[1,2-a]pyridin-2-yl)methyl]-4-oxo-4H-pyrido[1,2-a] pyrimidine-2-carboxamide]",0.225,
"CC1(CNCc2ccc3nc(CNC(=O)c4cc(=O)n5ccccc5n4)cn3c2)CC1 [Compound 121, N-{[6-({[(1-methylcyclopropyl)methyl]amino}methyl)imidazo [1,2-a]pyridin-2-yl]methyl}-4-oxo-4H-pyrido [1,2-a]pyrimidine-2-carboxamide]",0.0168,
O=C(NCc1cn2cc(-c3cccc(Cl)c3)ccc2n1)c1cccc2[nH]ncc12 [Compound 36],,IC50 (Compounds 1-62): 3.91 µM
"O=C(NCc1cn2cc(CNC3CC(F)(F)C3)ccc2n1)c1cc(=O)n2ccccc2n1 [Compound 110, N-[(6-{[(3,3-difluorocyclobutyl)amino]methyl}imidazo[1,2-a]pyridin-2-yl)methyl]-4-oxo-4H-pyrido[1,2-a] pyrimidine-2-carboxamide]",0.102,
"COc1cccc2c1OCC(c1ccc3nc(CNC(=O)c4cc(=O)n5ccccc5n4)cn3c1)NC2 (centres unmarked) [Example 234, N-{[6-(9-methoxy-2,3,4,5-tetrahydro-1,4-benzoxazepin-3-yl)imidazo[1,2-a]pyridin-2-yl]methyl}-4-oxo-4H-pyrido[1,2-a]pyrimidine-2-carboxamide]",3.44,
"Cc1ccc2nc(CNC(=O)c3cc(Br)cc4[nH]ncc34)cn2c1 [Compound 10, 6-bromo-N-({6-methylimidazo[1,2-a]pyridin-2-yl}methyl)-1H-indazole-4-carboxamide]",,IC50 (Compounds 1-62): 1.61 µM

# Second part, led by results:
IC50 (Compounds 63-265) [µM],Compound,further results
0.0178,"CC1CCN(Cc2ccc3nc(CNC(=O)c4cc(=O)n5ccccc5n4)cn3c2)CC1 [Compound 137, N-({6-[(4-methylpiperidin-1-yl)methyl]imidazo[1,2-a]pyridin-2-yl}methyl)-4-oxo-4H-pyrido[1,2-a] pyrimidine-2-carboxamide]",
0.206,"COc1ccc(CNCc2ccc3nc(CNC(=O)c4cc(=O)n5ccccc5n4)cn3c2)cc1 [Compound 71, N-{[6-({[(4-methoxyphenyl)methyl]amino}methyl)imidazo [1,2-a]pyridin-2-yl]methyl}-4-oxo-4H-pyrido [1,2-a]pyrimidine-2-carboxamide]",
0.224,"CC1(C)COC(CNCc2ccc3nc(CNC(=O)c4cc(=O)n5ccccc5n4)cn3c2)C1 (centres unmarked) [Compound 147, N-{[6-({[(4,4-dimethyloxolan-2-yl)methyl]amino}methyl)imidazo[1,2-a]pyridin-2-yl]methyl}-4-oxo-4H-pyrido[1,2-a] pyrimidine-2-carboxamide]",
1.08,"NC(Cc1ccccc1)Cc1ccc2nc(CNC(=O)c3cc(=O)n4ccccc4n3)cn2c1 (centres unmarked) [Compound 247, N-{[6-(2-amino-3-phenylpropyl)imidazo[1,2-a]pyridin-2-yl]methyl}-4-oxo-4H-pyrido[1,2-a]pyrimidine-2-carboxamide]",
0.0744,"O=C(NCc1cn2cc(CNCC3CCCO3)ccc2n1)c1cc(=O)n2ccccc2n1 (centres unmarked) [Compound 95, 4-oxo-N-{[6-({[(oxolan-2-yl)methyl]amino}methyl)imidazo [1,2-a]pyridin-2-yl]methyl}-4H-pyrido[1,2-a]pyrimidine-2-carboxamide]",
6.6,"O=C(NCc1cn2cc(C(F)(F)F)ccc2n1)c1cc(=O)n2ccccc2n1 [Compound 65, 4-oxo-N-{[6-(trifluoromethyl)imidazo[1,2-a]pyridin-2-yl]methyl}-4H-pyrido[1,2-a]pyrimidine-2-carboxamide]",
0.429,"CC(C)(C)OC(=O)N1CCCCC1CNCc1ccc2nc(CNC(=O)c3cc(=O)n4ccccc4n3)cn2c1 (centres unmarked) [Compound 102, tert-butyl 2-{[({2-[({4-oxo-4H-pyrido[1,2-a]pyrimidin-2-yl} formamido)methyl]imidazo[1,2-a]pyridin-6-yl}methyl)amino]methyl}piperidine-1-carboxylate]",
2.11,"O=C(NCc1cn2cc(CNC3CNC3)ccc2n1)c1cc(=O)n2ccccc2n1 [Compound 241, N-[(6-{[(azetidin-3-yl)amino]methyl}imidazo[1,2-a]pyridin-2-yl)methyl]-4-oxo-4H-pyrido[1,2-a]pyrimidine-2-carboxamide]",
0.241,"O=C(NCc1cn2cc(CNCC3COCCO3)ccc2n1)c1cc(=O)n2ccccc2n1 (centres unmarked) [Compound 108, N-{[6-({[(1,4-dioxan-2-yl)methyl]amino}methyl)imidazo [1,2-a]pyridin-2-yl]methyl}-4-oxo-4H-pyrido[1,2-a] pyrimidine-2-carboxamide]",
0.0597,"O=C(NCc1cn2cc(CN3CCC(F)CC3)ccc2n1)c1cc(=O)n2ccccc2n1 [Compound 144, N-({6-[(4-fluoropiperidin-1-yl)methyl]imidazo[1,2-a]pyridin-2-yl}methyl)-4-oxo-4H-pyrido[1,2-a]pyrimidine-2-carboxamide]",
0.309,"O=C(NCc1cn2cc(CNCC3CCCCC3)ccc2n1)c1cc(=O)c2cc(Cl)ccc2o1 [Compound 172, 6-chloro-N-[(6-{[(cyclohexylmethyl)amino]methyl}imidazo[1,2-a]pyridin-2-yl)methyl]-4-oxo-4H-chromene-2-carboxamide]",

# Source: patent US12358915B2, “METTL3 inhibitory compounds” (STORM THERAPEUTICS LTD., priority 2019, dated 2025)
